Values after ≈ are worked out from the molar mass of the structure shown. Like-named read-outs stand apart in the source and are kept apart here.

For data set [1] the following is noted: in vivo; cited from earlier work. The text has this:
Colistin has been clinically available since the 1950s, but it soon fell into disuse, mainly due to its nephrotoxic potential. Alongside its nephrotoxicity, which ranges between 0 and 58% in different studies, some evidence has found the incidence of peripheral neuropathy may be up to 50% with its use, as the main manifestation of neurotoxicity. The lack of other available options has increased the use of colistin in MDR infections, even with its safety profile. The pharmacokinetics of colistin are complex. Colistin is available as a sulfate and as sodium colis ...

The test system of the next data set is K. pneumoniae. Briefly: Susceptibility of clinical isolates (VITEK 2; MIC by broth dilution on microplate). Type of data set: cell-based, Klebsiella pneumoniae. As to conditions: for MIC: Klebsiella pneumoniae, broth dilution, read-out: highest MIC. From the text:
(§1) The bacterial isolates were recovered in MacConkey agar (Oxoid-Thermo Scientific®, Hampshire, UK) and sent to the Bacterial Molecular Genetics Laboratory in AMIES transport media (COPAN). […] The MICs of meropenem, amikacin, and colistin were established by the broth dilution method on a microplate. E. coli ATCC® 25922^TM and P. aeruginosa ATCC® 27853^TM strains was used as a susceptibility control (American Type Culture Collection). Finally, the carbapenemase genes blaIMP, blaOXA-48, blaVIM, blaGES, blaKPC, and blaNDM were assessed by multiplex PCR [45].

Another data set concerns E. cloacae. The data set is described as above. Type of data set: cell-based, Enterobacter cloacae.
Text: as §1

The test system of a further data set is P. aeruginosa. Described as above. Type of data set: cell-based, Pseudomonas aeruginosa. Particulars: for MIC: Pseudomonas aeruginosa, broth dilution.
Text: as §1
Background: In broth dilution the organism is exposed to a series of concentrations in liquid medium.

The subject of a further data set is E. coli. The data set is described as above. The class given is cell-based, Escherichia coli. As to conditions: n = 1, favorable outcome.
Text: as §1

In another data set the test system is C. freundii. The data set is described as above. The class given is cell-based. As to conditions: n = 1, unfavorable outcome.
Text: as §1

The test system of a further data set is A. baumannii. Described as above. The class given is cell-based, Acinetobacter baumannii. As to conditions: for MIC: Acinetobacter baumannii, broth dilution, one isolate.
Text: as §1

Another data set concerns P. putida. The description is as above. Type of data set: cell-based, Pseudomonas putida.
Text: as §1

The mark [2] stands for this setting: isolates from patients with favorable outcome n = 10.
[3] abbreviates: isolates from patients with unfavorable outcome n = 14.

Turning to colistimethate sodium [CMS], the half-life in data set [1] was 2.07 h.

Regarding `CN(C)c1cc(NC(=O)CNC(C)(C)C)c(O)c2c1C[C@H]1C[C@H]3[C@H](N(C)C)C(O)=C(C(N)=O)C(=O)[C@@]3(O)C(O)=C1C2=O` [Glycylcyclines, tigecycline], the “isolates I (intermediate), n (%)” value in the data set with K. pneumoniae (favorable outcome n = 3) is 0 (0) n (%); in the data set with K. pneumoniae (unfavorable outcome n = 2), 0 (0) n (%); in the data set with E. cloacae (n = 1, favorable outcome) it was 0 (0) n (%); in the data set on P. aeruginosa (setting [2]), 0 (0) n (%); with P. aeruginosa (setting [3]), 0 (0) n (%); with E. coli, 0 (0) n (%). In addition, the “isolates I (intermediate), n (%)” value in the data set with C. freundii is listed as 1 (100) n (%); in the data set with A. baumannii (n = 1, favorable outcome), 0 (0) n (%); in the data set on P. putida (favorable outcome n = 1) it was 1 (100) n (%); with P. putida (unfavorable outcome n = 1), 0 (0) n (%). Further, the “isolates R (resistant), n (%)” value in the data set on K. pneumoniae (favorable outcome n = 3) is given as 0 (0) n (%); in the data set with K. pneumoniae (unfavorable outcome n = 2), 0 (0) n (%); in the data set with E. cloacae (n = 1, favorable outcome) it was 0 (0) n (%); in the data set with P. aeruginosa (setting [2]), 9 (90) n (%); with P. aeruginosa (setting [3]) it was 11 (78.6) n (%); in the data set on E. coli, 0 (0) n (%). Further, the “isolates R (resistant), n (%)” value in the data set on C. freundii was 0 (0) n (%); in the data set on A. baumannii (n = 1, favorable outcome), 0 (0) n (%); with P. putida (favorable outcome n = 1), 0 (0) n (%); in the data set on P. putida (unfavorable outcome n = 1) it was 0 (0) n (%). The “isolates S (susceptible), n (%)” value is reported as 1 (33.3) n (%) in the data set with K. pneumoniae (favorable outcome n = 3); 2 (100) n (%) with K. pneumoniae (unfavorable outcome n = 2); 1 (100) n (%) in the data set with E. cloacae (n = 1, favorable outcome); 0 (0) n (%) in the data set with P. aeruginosa (setting [2]); 0 (0) n (%) with P. aeruginosa (setting [3]); 1 (100) n (%) in the data set with E. coli. For the same molecule, the “isolates S (susceptible), n (%)” value in the data set with C. freundii is given as 0 (0) n (%); in the data set with A. baumannii (n = 1, favorable outcome) it was 1 (100) n (%); in the data set on P. putida (favorable outcome n = 1), 0 (0) n (%); with P. putida (unfavorable outcome n = 1) it was 1 (100) n (%).

For `C[C@@H](O)[C@H]1C(=O)N2C(C(=O)O)=C(S[C@@H]3CN[C@H](C(=O)N(C)C)C3)[C@H](C)[C@H]12` [meropenem], the MIC is 32 µg/mL (≈ 83.4 µM) in the data set on K. pneumoniae; 32 µg/mL (≈ 83.4 µM) with E. cloacae (Enterobacter cloacae, broth dilution, read-out: highest MIC); over 1020 µg/mL in the data set on P. aeruginosa (found in 56.7% of isolates, 88.2% of which harbored KPC and VIM, read-out: MIC); 64 µg/mL (≈ 167 µM) in the data set on A. baumannii; over 1020 µg/mL with P. putida (Pseudomonas putida, broth dilution, one isolate).

Take `NCC[C@H](O)C(=O)N[C@@H]1C[C@H](N)[C@@H](O[C@H]2O[C@H](CN)[C@@H](O)[C@H](O)[C@H]2O)[C@H](O)[C@H]1O[C@H]1O[C@H](CO)[C@@H](O)[C@H](N)[C@H]1O` [amikacin]: the minimum inhibitory concentration (MIC) with K. pneumoniae worked out at 64 µg/mL (≈ 109 µM); in the data set with P. aeruginosa (established in 23.3% of isolates, read-out: highest MIC), 128 µg/mL (≈ 219 µM); in the data set with A. baumannii it was 64 µg/mL (≈ 109 µM).

The term half-life denotes the time in which the quantity being followed falls by half. For orientation: MIC means the lowest concentration that inhibits growth of the organism.

The values are drawn from article PMC8540821, “Estimation of the Difference in Colistin Plasma Levels in Critically Ill Patients with Favorable or Unfavorable Clinical Outcomes” (Pharmaceutics, 2021).
